Patent publication US7317107B2, “Imidazole 4-carboxamide compounds with adenosine deaminase inhibiting activity” (Astellas Pharma Inc., priority 2002, dated 2008)
Where a name gives a salt, the structure may show the parent alone.

Target: T1, Human ADA (Homo sapiens, UniProt P00813)
T1 construct: made in house
T1 sequence (P00813 1-363): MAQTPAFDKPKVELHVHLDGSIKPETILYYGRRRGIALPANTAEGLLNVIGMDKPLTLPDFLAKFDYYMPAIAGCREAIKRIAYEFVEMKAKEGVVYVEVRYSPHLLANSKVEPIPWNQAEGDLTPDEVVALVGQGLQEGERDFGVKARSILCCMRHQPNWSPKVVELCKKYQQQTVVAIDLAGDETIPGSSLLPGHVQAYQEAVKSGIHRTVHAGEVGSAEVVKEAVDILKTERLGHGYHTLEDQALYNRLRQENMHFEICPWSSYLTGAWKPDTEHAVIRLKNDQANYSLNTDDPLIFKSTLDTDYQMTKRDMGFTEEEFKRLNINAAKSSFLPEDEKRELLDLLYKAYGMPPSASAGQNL
Assay: Adenosine Deaminase (ADA) Enzyme Assay
Format: biochemical
Conditions: 0.16 μg/ml ADA, 0.1 mM adenosine, 10 mM phosphate buffer saline pH 7.4, room temperature, decrease in A265 for 3 minutes
Procedure: Adenosine Deaminase (ADA) Enzyme Assay
• 1-{(3R,4S)-4-Hydroxy-1-[2-(4-ethoxyphenyl)-4-benzoxazolyl]-3-pentyl}-imidazole-4-carboxamide hydrochloride (E0023) • 1-{(3R,4S)-4-Hydroxy-1-[2-(2-thienyl)-7-benzoxazolyl]-3-pentyl}-imidazole-4-carboxamide hydrochloride (E0028) Test Method:
The reaction velocity (V) is measured by a change in absorbance at 265 nm (A265) resulting from the deamination of adenosine. Human ADA was expressed and purified from ADA-deficient bacterial strain. Reaction mixtures of a total volume of 200 μl contained 0.16 μg/ml of ADA and 0.1 mM of adenosine and test compound in 10 mM phosphate buffer saline (pH 7.4). The reaction was started by addition of ADA to a mixture of adenosine and test compound. The reaction was followed at room temperature by recording decrease in A265 for 3 minutes in SPECTRAmax 250 (Molecular Devices, USA) to automatically calculate Vmax. Inhibitory potency of test compound was expressed as IC50 value, the drug concentration required to produce 50% inhibition of Vmax in comparison to vehicle treatment.

Structure (SMILES)	IC50 [µM]
C[C@H](O)[C@@H](CCc1cccc2nc(-c3cccs3)oc12)n1cnc(C(N)=O)c1 [Compound E0028, 1-{(3R,4S)-4-Hydroxy-1-[2-(2-thienyl)-7-benzoxazolyl]-3-pentyl}imidazole-4-carboxamide hydrochloride]	< 0.02
CCOc1ccc(-c2nc3c(CC[C@H]([C@H](C)O)n4cnc(C(N)=O)c4)cccc3o2)cc1 [Compound E0023, 1-{(3R,4S)-4-Hydroxy-1-[2-(4-ethoxyphenyl)-4-benzoxazolyl]-3-pentyl}imidazole-4-carboxamide hydrochloride]	< 0.02
